Assay results taken from patent US4198512A, “1-Oxo-1,2-dihydroisoquinoline derivatives” (Yamanouchi Pharmaceutical Co., Ltd., priority 1977, dated 1980).

Tests used:
[1] = Whittle's method, writhing (acetic acid); assay type: in vivo, Male ICR-Mice; settings: 50 mg/kg P.O., mice; 0.6% acetic acid i.p.
Method: (§1) Male ICR-Mice (weighting 25-35 g.), one group being 12 mice, fasted overnight were used in this test. The sample was orally administered, and 20 minutes after, 5 ml./Kg. of 0.4% Evance blue was injected intravenously and 10 minutes thereafter, 10 ml./Kg. of 0.6% acetic acid was injected intraperitoneally. The number of writhings after 20 minutes following the administration of acetic acid was recorded and after an additional 10 minutes, the mice were killed by dislocation of the neck, the dye leaked in the abdominal cavity was washed out with 5 ml. of 0.9% saline to make the total amount 10 ml., and thereafter furs, blood corpuscles, etc., intermingled were removed by centrifugal separation at 3,000 r.p.m. for 5 minutes. Furthermore, to prevent turbidity caused by protein, 0.1 ml. of an aqueous 0.1 normal sodium hydroxide was added and then the absorbance at 590 nm was measured. The inhibition ratio of the sample administered rat groups to control groups was calculated.

[2] = 50 mg/kg
Method: as §1

[3] = Carrageenin-induced edema; assay type: in vivo, Male Wister rats; settings: oral, 1 h before carrageenin, rat hind paw, 3 h
Method: (a) Carrageenin-induced edema
Male Wister rats (weighing 130-170 g.), one group being 6 rats, fasted overnight were used. According to Winter's method [Proc. Soc. Exp. Biol. Med., 111,544 (1962)], 0.1 ml. of 1% carrageenin [Iwai Kagaku Yakuhin K.K. Seakem] suspension in 0.9% saline was injected into the planter tissue of the left hind paw. After 3 hours, each rat was sacrificed by chloroform and the hind paw was cut and weighed immediately. By using the value obtained by subtracting the weight of the untreated hind paw from the weight of the hind paw having injected therein the carrageenin as the weight of edema, the inhibitory ratio of the sample administered rat groups to control groups was calculated. The sample was orally administered before one hour of the injection of Carrageenin.
In addition, the test samples used in the aforesaid tests (a) and (b) were prepared by suspending the test compounds in an aqueous 0.5% methyl cellulose solutions.

| Structure (SMILES) | Inhibition (%) Writhing [1] [%] | Inhibition (%) Permeability [2] [%] | Inhibition (Carrageenin-induced edema) ([3]; 100 mg/kg) [%] | Inhibition (Carrageenin-induced edema) ([3]; 50 mg/kg) [%] |
| --- | --- | --- | --- | --- |
| Cc1c(N(C)C)c(=O)n(-c2ccccc2)n1C [Aminopyrine, reference compound] | 58.1 | 41.7 |  |  |
| CSc1cc2ccccc2c(=O)n1C [Ex. 1, 2-methyl-3-methylthio-1-oxo-1,2-dihydroisoquinoline] |  |  | 57.3 |  |
| CCn1c(SC)cc2ccccc2c1=O [Ex. 2, 2-ethyl-3-methylthio-1-oxo-1,2-dihydroisoquinoline] |  |  |  | 38.5 |
| Cn1c([S+](C)[O-])cc2ccccc2c1=O (centres unmarked) [Ex. 4, 2-methyl-3-methylsulfinyl-1-oxo-1,2-dihydroisoquinoline] | 39.7 | 42.8 | 68.2 | 55.8 |
| Cn1c(S(C)(=O)=O)cc2ccccc2c1=O [Ex. 5, 2-methyl-3-methylsulfonyl-1-oxo-1,2-dihydroisoquinoline] | 45.8 | 47.1 | 68.1 | 50.7 |
| CCCCC1C(=O)N(c2ccccc2)N(c2ccccc2)C1=O [Phenyl butazone, reference compound] |  |  | 51.2 | 44.5 |
